Laboratory results reported in US10525055B2, “Opioid receptor antagonist prodrugs” (Nirsum Laboratories, Inc., priority 2017, dated 2020).

What was measured:
[1] = Plasma stability assay, rat plasma; assay type: in vitro ADME; conditions: 37° C., 10 μM
[2] = Plasma stability assay, dog plasma; assay type: in vitro ADME; conditions: 37° C., 2 μM; for % remaining at time point in minutes, 15 min: 15 min (as headed); for % remaining at time point in minutes, 120 min: 120 min (as headed); for % remaining at time point in minutes, 480 min: 480 min (as headed); for % remaining at time point in minutes, 1440 min: 1440 min (as headed)
Description: (§1) Plasma stability determination of the test compounds in rat, dog, cynomolgus monkey and human plasma is performed using HPLC-MS. For rat, incubations are carried out in 96-well polypropylene plates in 5 aliquots of 70 μL each (one for each time point). […] Five time points are analyzed (0, 15, 120, 480 and 1440 min). […] All incubations are performed in duplicates. The samples are analyzed by HPLC-MS. The percentage of parent compound remaining after incubation in plasma is determined.

[3] = Plasma stability assay, monkey plasma; assay type: in vitro ADME, cynomolgus monkey; conditions: 37° C., 2 μM; for % remaining at time point in minutes, 15 min: 15 min (as headed); for % remaining at time point in minutes, 120 min: 120 min (as headed); for % remaining at time point in minutes, 480 min: 480 min (as headed); for % remaining at time point in minutes, 1440 min: 1440 min (as headed)
Description: as §1

[4] = Plasma stability assay, human plasma; assay type: in vitro ADME; conditions: 37° C., 2 μM; for % remaining at time point in minutes, 15 min: 15 min (as headed); for % remaining at time point in minutes, 120 min: 120 min (as headed); for % remaining at time point in minutes, 480 min: 480 min (as headed); for % remaining at time point in minutes, 1440 min: 1440 min (as headed)
Description: as §1

[5] = Liver S9 fraction stability, dog; assay type: in vitro ADME; conditions: 1.0 mg/ml S9 protein, 2 μM, 37° C.
Description: (§2) Liver S9 fraction stability determination of the test compounds in dog, cynomolgus monkey and human is performed using HPLC-MS. Test compound (2 μM, 0.1% DMSO, 1% Methanol final concentration) was assessed for stability in a 50 μl phosphate buffer containing 1.0 mg/ml S9 protein from each of the three species and 5 mM D-saccharic acid-1, 4-lactone. Samples were incubated at 37° C. for 60 minutes and the % compound remaining was assessed.

[6] = Liver S9 fraction stability, monkey; assay type: in vitro ADME, cynomolgus monkey; conditions: 1.0 mg/ml S9 protein, 2 μM, 37° C.
Description: as §2

[7] = Liver S9 fraction stability, human; assay type: in vitro ADME; conditions: 1.0 mg/ml S9 protein, 2 μM, 37° C.
Description: as §2

[8] = Solubility determination in oil (cottonseed oil, sesame oil); conditions: Sesame oil
Description: A known amount of test substance (˜40 mg) was weighed into the vial, 100 μL of oil was added and heated to 60° C. and then system was slurried to reach equilibrium. […] Extra oil was added into the vial once compound precipitated out and then the system was re-equilibrated at 1000 rpm at room temperature (25° C.). Final concentration was determined by HPLC method as described below in Table 6a and 6b.

[9] = Rat pharmacokinetic studies, intramuscular; assay type: in vivo, male Sprague Dawley Rats; conditions: rat IM, Sesame oil + 1% Benzyl Alcohol
Description: The purpose of this study is to determine the pharmacokinetics of test compounds in plasma, following intramuscular administration to male Sprague Dawley Rats (n=3, unless otherwise specified).
The dose formulation of 400 mg base equivalents/ml in sesame oil+1% benzyl alcohol (unless otherwise specified) was administered by intramuscular injection. The dose volume was determined by the animals' body weight determined on the morning of dosing day.
Each collected blood sample was centrifuged for 4 minutes at 4° C. and 10000 rpm for plasma collection. Plasma was collected and transferred into a pre-labeled PP tube in dry ice at each time point and precipitated immediately using ACN at a ratio of 1:4 (plasma:ACN). Centrifuged again (10 minutes, 12000 rpm) and obtain the supernatant.
After terminal collection, all supernatant was stored at approximately −80° C. until bioanalysis.
LC-MS/MS methods for the quantitative determination of test compound in biological matrix were developed. […] The sample analysis was performed concurrently with a set of calibration standards and two sets of QC samples using the LC-MS/MS method.
Plasma concentration versus time data was analyzed by non-compartmental approaches using the Phoenix WinNonlin 6.3 software program. Cmax, Tmax, T1/2, AUC(0-t), AUC(0-inf), MRT(0-t), MRT(0-inf) and graphs of plasma concentration versus time profile were prepared.

[10] = Dog pharmacokinetic studies, deep intramuscular; assay type: in vivo, Beagle dogs; conditions: dog IM, Sesame oil + 1% Benzyl Alcohol

SMILES	% remaining at time point in minutes, 0 min [2]	% remaining at time point in minutes, 15 min [2]	% remaining at time point in minutes, 120 min [2]	% remaining at time point in minutes, 480 min [2]	% remaining at time point in minutes, 1440 min [2]	% remaining at time point in minutes, 0 min [3]	% remaining at time point in minutes, 15 min [3]	% remaining at time point in minutes, 120 min [3]	% remaining at time point in minutes, 480 min [3]	% remaining at time point in minutes, 1440 min [3]	% remaining at time point in minutes, 0 min [4]	% remaining at time point in minutes, 15 min [4]	% remaining at time point in minutes, 120 min [4]	% remaining at time point in minutes, 480 min [4]	% remaining at time point in minutes, 1440 min [4]	Liver S9 Fraction Stability % remaining at 60 minutes, Dog [5]	Liver S9 Fraction Stability % remaining at 60 minutes, Monkey [6]	Liver S9 Fraction Stability % remaining at 60 minutes, Human [7]	other results
C=C1CC[C@@]2(O)C3Cc4ccc(OC(=O)CCCCCCC/C=C/CCCCCCCC)c5c4[C@@]2(CCN3CC2CC2)[C@H]1O5 [Compound 15, (4aS,7aS,12bS)-3-(cyclopropylmethyl)-4a-hydroxy-7-methylene-2,3,4,4a,5,6,7,7a-octahydro-1H-4,12-methanobenzofuro[3,2-e]isoquinolin-9-yl (E)-octadec-9-enoate]	100%	82.5%	80.6%	90.1%	86.1%	100%	74.5%	72.7%	80.6%	76.5%	100%	83.3%	82.5%	107.1%	109.0%	80.9%	76.7%	59.8%	% remaining at time point in minutes, 0 min ([1]; 0 min): 100%; % remaining at time point in minutes, 15 min ([1]; 15 min): 72%; % remaining at time point in minutes, 120 min ([1]; 120 min): 69.3%; % remaining at time point in minutes, 480 min ([1]; 480 min): 52%; % remaining at time point in minutes, 1440 min ([1]; 1440 min): 35%; Approximate Solubility (mg/mL) in Excipient: Sesame oil ([8]; heating temp. 40 °C, obs. temp. 40 °C): <52 mg/mL; Approximate Solubility (mg/mL) in Excipient: Sesame oil ([8]; heating temp. 60 °C, obs. temp. 25 °C): >396.5 mg/mL; AUC0-inf (ng · h/mL) prodrug ([9]; 80 mg/kg): 679 ng·h/mL; AUC0-inf (ng · h/mL) prodrug ([9]; 123 mg/kg): 2574 ng·h/mL; AUC0-inf (ng · h/mL) prodrug ([9]; 165 mg/kg): 2789 ng·h/mL; Half-life t1/2 (hour) prodrug ([9]; 165 mg/kg): 500 h; AUC0-inf (ng · h/mL) prodrug ([10]; 30 mg/kg): 521 ng·h/mL; Half-life t1/2 (hour) prodrug ([10]; 30 mg/kg): 134 h; AUC0-inf (ng · h/mL) prodrug ([10]; 48 mg/kg): 1144 ng·h/mL; Half-life t1/2 (hour) prodrug ([10]; 48 mg/kg): 518 h; AUC0-inf (ng · h/mL) prodrug ([10]; 96 mg/kg): 1353 ng·h/mL; Half-life t1/2 (hour) prodrug ([10]; 96 mg/kg): 162 h
CCCCCCCCCCCCCCCC(=O)OC1CCCn2c1nc(C)c(CCN1CCC(c3noc4cc(F)ccc34)CC1)c2=O (centres unmarked) [Paliperidone palmitate, reference compound]	100%	91.2%	88.4%	95.9%	93.1%	100%	92%	89.5%	98.4%	92.5%	100%	103.7%	97.6%	109.1%	104.1%	56.4%	57.4%	47.8%	–
